Experimental data: patent publication US20070027175A1, “Antineoplastic activities of ellipticine and its derivatives” (priority 2005, published 2007)
Like-named read-outs stand apart in the source and are kept apart here.

Key:
[1] = test system: RPMI8226 myeloma cell line; assay: CellTiter-Glo luminescent cell viability assay, RPMI8226; assay type: cell-based, human; parameters: unit of the concentration uncertain
Procedure: (§1) The dosage of each derivative was set at 2, 0.2 and 0.02 mM. A cell culture medium control and 0.5% DMSO control was maintained in each experiment. The cell viability was tested each day over a period of five days using the CellTiter-Glo luminescent cell viability assay kit from Promega Co.
Cell Titer-Glo luminescent cell viability assay kit from Promega Co (Madison, Wis.) was used to determine cell growth inhibition by the various compounds tested. The kit determines cell viability by quantifying the amount of ATP present in the cell culture medium. Presence of ATP signals the presence of metabolically active cells (3). The intensity of luminescence was measured by a computerized luminometer (Promega, Co. Madison, Wis.). Each well was read five times within 30 minutes of adding Cell Titer-Glo reagent mixture. […]

Ark myeloma cell line = assay: CellTiter-Glo luminescent cell viability assay, Ark; assay type: cell-based, human; parameters: unit of the concentration uncertain
Procedure: as §1
(§2) Cell Titer-Glo luminescent cell viability assay kit from Promega Co (Madison, Wis.) was used to determine cell growth inhibition by the various compounds tested. The kit determines cell viability by quantifying the amount of ATP present in the cell culture medium. Presence of ATP signals the presence of metabolically active cells (3). The intensity of luminescence was measured by a computerized luminometer (Promega, Co. Madison, Wis.). Each well was read five times within 30 minutes of adding Cell Titer-Glo reagent mixture.
(§3) Cells were contacted with the antineoplastic agents in ninety six well culture plates. The concentration of each neoplastic agent was maintained a constant. A cell culture medium control and 0.5% DMSO control were maintained in each set of experiments. The cell viability was tested every day using the CellTiter-Glo luminescent cell viability kit from Promega Co. (Madison, Wis.) for a period of five days.

U266 myeloma cell line = test system: U266 myeloma cell line; parameters: cell viability (CellTiter-Glo luminescent assay): dose or concentration left out as unconfirmed; conditions: U266
Procedure: as §1
U266 cell line was one of 12 myeloma cell lines used in screening of anti-myeloma agents. In FIG. 10A, cells were treated with 14 ellipticine derivatives (0.5 mM) obtained from the DTP; control cells were untreated. Ellipticine derivatives are coded with NSC identifiers. For 5 days, cell viability was measured every 24 hours using CellTiter-Glo Luminescent Assay. […] In FIG. 10B, U266 cells, along with six other myeloma cell lines, were co-cultured in direct contact with human fetal bone mesenchymal cells and treated with EPED3 (0.5 mM and 2 mM) or Velcade (0.5 mM); control cells were untreated. Cell proliferation was assessed by MTT assay every 24 hours for 5 days. […] Error bars indicate standard deviation.
as §2, §3

CAG myeloma cell line = assay: CellTiter-Glo luminescent cell viability assay, CAG; assay type: cell-based, human; parameters: unit of the concentration uncertain
Procedure: as §1, §2, §3

NCI-60 cancer panel = conditions: average across the cell lines of the concentration at which growth is inhibited 50%; unit in the High Conc. footnote; cited from earlier work

Cc1c2ccncc2c(C)c2c1[nH]c1ccccc12 [Ellipticine, 5,11-Dimethyl-6H-Pyridol[4,3]carbazole]
cell viability (CellTiter-Glo luminescent assay) ([1]; 0.02 (unit uncertain), Day 1): 110,290
cell viability (CellTiter-Glo luminescent assay) ([1]; 0.02 (unit uncertain), Day 2): 244,140
cell viability (CellTiter-Glo luminescent assay) ([1]; 0.02 (unit uncertain), Day 3): 390,151
cell viability (CellTiter-Glo luminescent assay) ([1]; 0.02 (unit uncertain), Day 4): 898,067
cell viability (CellTiter-Glo luminescent assay) ([1]; 0.02 (unit uncertain), Day 5): 966,857
cell viability (CellTiter-Glo luminescent assay) ([1]; 0.2 (unit uncertain), Day 1): 107,014
cell viability (CellTiter-Glo luminescent assay) ([1]; 0.2 (unit uncertain), Day 2): 235,145
cell viability (CellTiter-Glo luminescent assay) ([1]; 0.2 (unit uncertain), Day 3): 355,794
cell viability (CellTiter-Glo luminescent assay) ([1]; 0.2 (unit uncertain), Day 4): 774,806
cell viability (CellTiter-Glo luminescent assay) ([1]; 0.2 (unit uncertain), Day 5): 921,077
cell viability (CellTiter-Glo luminescent assay) ([1]; 2 (unit uncertain), Day 1): 87,440
cell viability (CellTiter-Glo luminescent assay) ([1]; 2 (unit uncertain), Day 2): 115,263
cell viability (CellTiter-Glo luminescent assay) ([1]; 2 (unit uncertain), Day 3): 110,776
cell viability (CellTiter-Glo luminescent assay) ([1]; 2 (unit uncertain), Day 4): 126,944
cell viability (CellTiter-Glo luminescent assay) ([1]; 2 (unit uncertain), Day 5): 85,699
cell viability (CellTiter-Glo luminescent assay) (Ark myeloma cell line; 0.02 (unit uncertain), Day 1): 120,709
cell viability (CellTiter-Glo luminescent assay) (Ark myeloma cell line; 0.02 (unit uncertain), Day 2): 208,608
cell viability (CellTiter-Glo luminescent assay) (Ark myeloma cell line; 0.02 (unit uncertain), Day 3): 268,420
cell viability (CellTiter-Glo luminescent assay) (Ark myeloma cell line; 0.02 (unit uncertain), Day 4): 802,063
cell viability (CellTiter-Glo luminescent assay) (Ark myeloma cell line; 0.02 (unit uncertain), Day 5): 1,049,792
cell viability (CellTiter-Glo luminescent assay) (Ark myeloma cell line; 0.2 (unit uncertain), Day 1): 125,251
cell viability (CellTiter-Glo luminescent assay) (Ark myeloma cell line; 0.2 (unit uncertain), Day 2): 230,950
cell viability (CellTiter-Glo luminescent assay) (Ark myeloma cell line; 0.2 (unit uncertain), Day 3): 331,985
cell viability (CellTiter-Glo luminescent assay) (Ark myeloma cell line; 0.2 (unit uncertain), Day 4): 877,082
cell viability (CellTiter-Glo luminescent assay) (Ark myeloma cell line; 0.2 (unit uncertain), Day 5): 1,183,902
cell viability (CellTiter-Glo luminescent assay) (Ark myeloma cell line; 2 (unit uncertain), Day 1): 86,010
cell viability (CellTiter-Glo luminescent assay) (Ark myeloma cell line; 2 (unit uncertain), Day 2): 98,439
cell viability (CellTiter-Glo luminescent assay) (Ark myeloma cell line; 2 (unit uncertain), Day 3): 70,824
cell viability (CellTiter-Glo luminescent assay) (Ark myeloma cell line; 2 (unit uncertain), Day 4): 44,913
cell viability (CellTiter-Glo luminescent assay) (Ark myeloma cell line; 2 (unit uncertain), Day 5): 10,996
cell viability (CellTiter-Glo luminescent assay) (U266 myeloma cell line; 0.02, Day 1): 31,950
cell viability (CellTiter-Glo luminescent assay) (U266 myeloma cell line; 0.02, Day 2): 47,812
cell viability (CellTiter-Glo luminescent assay) (U266 myeloma cell line; 0.02, Day 3): 66,571
cell viability (CellTiter-Glo luminescent assay) (U266 myeloma cell line; 0.02, Day 4): 115,083
cell viability (CellTiter-Glo luminescent assay) (U266 myeloma cell line; 0.02, Day 5): 152,839
cell viability (CellTiter-Glo luminescent assay) (U266 myeloma cell line; 0.2, Day 1): 32,490
cell viability (CellTiter-Glo luminescent assay) (U266 myeloma cell line; 0.2, Day 2): 47,622
cell viability (CellTiter-Glo luminescent assay) (U266 myeloma cell line; 0.2, Day 3): 62,648
cell viability (CellTiter-Glo luminescent assay) (U266 myeloma cell line; 0.2, Day 4): 106,989
cell viability (CellTiter-Glo luminescent assay) (U266 myeloma cell line; 0.2, Day 5): 132,439
cell viability (CellTiter-Glo luminescent assay) (U266 myeloma cell line; 2, Day 1): 23,680
cell viability (CellTiter-Glo luminescent assay) (U266 myeloma cell line; 2, Day 2): 31,682
cell viability (CellTiter-Glo luminescent assay) (U266 myeloma cell line; 2, Day 3): 33,129
cell viability (CellTiter-Glo luminescent assay) (U266 myeloma cell line; 2, Day 4): 40,656
cell viability (CellTiter-Glo luminescent assay) (U266 myeloma cell line; 2, Day 5): 38,403
cell viability (CellTiter-Glo luminescent assay) (CAG myeloma cell line; 0.02 (unit uncertain), Day 1): 200,429
cell viability (CellTiter-Glo luminescent assay) (CAG myeloma cell line; 0.02 (unit uncertain), Day 2): 557,030
cell viability (CellTiter-Glo luminescent assay) (CAG myeloma cell line; 0.02 (unit uncertain), Day 3): 1,243,718
cell viability (CellTiter-Glo luminescent assay) (CAG myeloma cell line; 0.02 (unit uncertain), Day 4): 2,718,974
cell viability (CellTiter-Glo luminescent assay) (CAG myeloma cell line; 0.02 (unit uncertain), Day 5): 4,443,641
cell viability (CellTiter-Glo luminescent assay) (CAG myeloma cell line; 0.2 (unit uncertain), Day 1): 196,263
cell viability (CellTiter-Glo luminescent assay) (CAG myeloma cell line; 0.2 (unit uncertain), Day 2): 541,300
cell viability (CellTiter-Glo luminescent assay) (CAG myeloma cell line; 0.2 (unit uncertain), Day 3): 1,117,650
cell viability (CellTiter-Glo luminescent assay) (CAG myeloma cell line; 0.2 (unit uncertain), Day 4): 2,568,444
cell viability (CellTiter-Glo luminescent assay) (CAG myeloma cell line; 0.2 (unit uncertain), Day 5): 4,443,292
cell viability (CellTiter-Glo luminescent assay) (CAG myeloma cell line; 2 (unit uncertain), Day 1): 136,450
cell viability (CellTiter-Glo luminescent assay) (CAG myeloma cell line; 2 (unit uncertain), Day 2): 200,722
cell viability (CellTiter-Glo luminescent assay) (CAG myeloma cell line; 2 (unit uncertain), Day 3): 234,414
cell viability (CellTiter-Glo luminescent assay) (CAG myeloma cell line; 2 (unit uncertain), Day 4): 308,480
cell viability (CellTiter-Glo luminescent assay) (CAG myeloma cell line; 2 (unit uncertain), Day 5): 281,302

C[C@@H]1C[C@@H]2OC(=O)[C@]3(C)[C@H]2[C@@H](OC3(C)O)[C@]2(C)C(=O)C=C[C@@H]12 (stereo partly drawn) [NSC 19942, Tenulin]
Mean GI50 (NCI-60 cancer panel): −4.68 log^10 molar

CN(C)CC1CCCCCC(Br)C1=O.O=C(O)C(=O)O (stereo not drawn) [NSC 130789]
Mean GI50 (NCI-60 cancer panel): −4.96 log^10 molar

Nc1ncnc2c1ncn2[C@@H]1C=C(CO)[C@@H](O)[C@H]1O [NSC 316458, Neplanocin A]
Mean GI50 (NCI-60 cancer panel): −5.43 log^10 molar

CNC(=S)NC(=S)N(C)C [NSC 622693]
Mean GI50 (NCI-60 cancer panel): −4.53 log^10 molar

Cc1ccc(S(=O)(=O)N=NC=C2c3ccccc3N(O)c3ccccc32)cc1 [NSC 627891]
Mean GI50 (NCI-60 cancer panel): −5.43 log^10 molar

O=C1N(c2ccc(Cl)cc2)C(=O)C2(SC=NN2Cc2ccccc2)N1c1ccc(Cl)cc1 (stereo not drawn) [NSC 630740]
Mean GI50 (NCI-60 cancer panel): −4.26 log^10 molar

COc1ccc2[nH]c3c(C)c4cc[n+](COC(=O)c5ccccc5)cc4c(C)c3c2c1 [NSC 632620]
Mean GI50 (NCI-60 cancer panel): −6.52 log^10 molar

C=C1C(OC(=O)/C=C/c2ccccc2)CC(OC(C)=O)C2(C)C1CC1CC(OC(C)=O)C(C)=C(C(OC(C)=O)C2OC(C)=O)C1(C)C (stereo not drawn) [NSC 636859, Cuspidatin C]
Mean GI50 (NCI-60 cancer panel): −4.46 log^10 molar

CCCCC(=O)OC[n+]1ccc2c(C)c3[nH]c4ccc(OC)cc4c3c(C)c2c1.[I-] [NSC 637126]
Mean GI50 (NCI-60 cancer panel): −6.40 log^10 molar

CCCCCCC(=O)OC[n+]1ccc2c(C)c3[nH]c4ccccc4c3c(C)c2c1 [NSC 637132]
Mean GI50 (NCI-60 cancer panel): −6.09 log^10 molar

O=C(/C=C/c1ccc(Cl)c(Cl)c1)c1ccc(Cl)cc1Cl [NSC 640531]
Mean GI50 (NCI-60 cancer panel): −4.99 log^10 molar

C#CCN(N=O)C(=O)NCCCC(NC(C)=O)C(=O)NCc1ccccc1 (stereo not drawn) [NSC 645583]
Mean GI50 (NCI-60 cancer panel): −4.17 log^10 molar

O=C1/C(=C/C=C/c2ccccc2)CCC1CNc1ccccc1 (stereo not drawn) [NSC 661238]
Mean GI50 (NCI-60 cancer panel): −4.47 log^10 molar

CSc1nc[nH]c1C(N)=S [NSC 684041]
Mean GI50 (NCI-60 cancer panel): −4.11 log^10 molar

Cc1cc2[nH]c3c(C#N)c(-c4ccccc4)c(N=Nc4cccc(C(F)(F)F)c4)c(=O)n3c2cc1C [NSC 699959]
Mean GI50 (NCI-60 cancer panel): −4.53 log^10 molar
